# Reference: patent US20250064789A1, “KETOAMIDE DERIVATIVES AND PHARMACEUTICAL USES THEREOF” (priority 2022, published 2025)
# Legend:
# [1] = target: recombinant SARS-CoV-2 M^pro (Severe acute respiratory syndrome coronavirus 2 (2019-nCoV) (SARS-CoV-2), UniProt P0DTD1); assay: Inhibition of SARS-CoV-2 M^pro enzyme activity (fluorescent substrate assay); assay type: biochemical; details: inhibition of SARS-CoV-2 M^pro enzyme activity; values in nM; read-out: IC50
# Vero E6 cells = assay: Cytotoxic assay against Vero E6 cells (MTT, 72 h); assay type: cell-based
# Experimental: (§1) The cytotoxicity assessment of compounds was performed against Vero E6 cells. The specific experimental procedures: Vero E6 cells were seeded into a 96-well plate at a cell density of 2×10^4 cells/well, with 100 μL/well, and then incubated overnight at 37° C. in a 5% CO2 incubator. The next day, 100 μL of drug-containing medium was added to each well. The compound was diluted in a 2-fold serial dilution with a top concentration of […], for a total of 6 gradients. Three repeated wells were set for each concentration, and negative controls and blank controls without drugs were included for each experiment. […] All experimental data were analyzed using GraphPad Prism software.
# [2] = system: BEAS-2B cells (normal human bronchial epithelial cells); assay: Cytotoxic assay against human BEAS-2B cells (MTT, 72 h); assay type: cell-based
# Experimental: (§2) BEAS-2B cells (normal human bronchial epithelial cells) and HUVEC cells (human umbilical vein endothelial cells) were used to evaluate the cytotoxicity of compounds against human-derived cells. The detailed experimental procedures: BEAS-2B cells or HUVEC cells were seeded into a 96-well plate at a cell density of 2×10^4 cells/well, that is, 100 µL/well, and then incubated overnight at 37° C. in a 5% CO2 incubator. The next day, 100 μL of drug-containing medium was added to each well. The compound was diluted in a 2-fold serial dilution with a top concentration of […], for a total of 6 gradients. Three repeated wells were set for each concentration, and negative controls and blank controls without drugs were included for each experiment. […] All experimental data were analyzed using GraphPad Prism software.
# [3] = system: HUVEC cells (human umbilical vein endothelial cells); assay: Cytotoxic assay against HUVEC cells (MTT, 72 h); assay type: cell-based
# Experimental: as §2
# [4] = Metabolic stability using human liver microsomes; assay type: in vitro ADME; details: 37° C.; for Human liver microsomes T1/2: NADPH
# human thrombin = human thrombin (Homo sapiens (Human), UniProt P00734); assay: Human protease biochemical activity assay: Thrombin activity testing kit; details: read-out: Thrombin IC50
# Experimental: (§3) The biochemical activity of compounds against human proteases was determined using Cathepsin K inhibitor screening kit (K150-100), Cathepsin B inhibitor screening kit (K147-100), Thrombin activity testing kit (K373-100), Caspase-2 inhibitor screening kit (K152-100), and Cathepsin D inhibitor screening kit (K148-100) according to the instructions of the kits (Biovision, USA). All experiments were carried out in triplicate. All experimental data were analyzed using GraphPad Prism software.
# human cathepsin K = human cathepsin K (Homo sapiens (Human), UniProt P43235); assay: Human protease biochemical activity assay: Cathepsin K inhibitor screening kit; details: read-out: Cathepsin K IC50
# Experimental: as §3
# human cathepsin B = human cathepsin B (Homo sapiens (Human), UniProt P07858); assay: Human protease biochemical activity assay: Cathepsin B inhibitor screening kit
# Experimental: as §3
# human caspase 2 = human caspase 2 (Homo sapiens (Human), UniProt P42575); assay: Human protease biochemical activity assay: Caspase-2 inhibitor screening kit; details: read-out: Caspase-2 IC50
# Experimental: as §3
# human cathepsin D = human cathepsin D (Homo sapiens (Human), UniProt P07339); assay: Human protease biochemical activity assay: Cathepsin D inhibitor screening kit
# Experimental: as §3
# [5] = male, Sprague-Dawley, rat, in vivo, iv, 1 mg/kg
# in vivo = details: male, Sprague-Dawley, rat
# [6] = In vivo pharmacokinetic properties in rats; details: SD rats
# [7] = Cytotoxic assay against Vero E6 cells (MTT, 72 h); assay type: cell-based; details: African green monkey
# Experimental: as §1
# [8] = Cytotoxic assay against human BEAS-2B cells (MTT, 72 h); assay type: cell-based; details: human
# Experimental: as §2
# [9] = Cytotoxic assay against HUVEC cells (MTT, 72 h); assay type: cell-based, human; details: human
# Experimental: as §2
# human cathepsin K, sequence (P43235 115-329): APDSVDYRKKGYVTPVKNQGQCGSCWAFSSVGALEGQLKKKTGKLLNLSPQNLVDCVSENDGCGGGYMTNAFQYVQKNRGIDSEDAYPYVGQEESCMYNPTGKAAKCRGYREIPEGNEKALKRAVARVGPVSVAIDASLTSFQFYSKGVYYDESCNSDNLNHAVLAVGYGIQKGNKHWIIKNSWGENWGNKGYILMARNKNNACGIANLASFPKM
# human cathepsin D, sequence (P07339 65-412): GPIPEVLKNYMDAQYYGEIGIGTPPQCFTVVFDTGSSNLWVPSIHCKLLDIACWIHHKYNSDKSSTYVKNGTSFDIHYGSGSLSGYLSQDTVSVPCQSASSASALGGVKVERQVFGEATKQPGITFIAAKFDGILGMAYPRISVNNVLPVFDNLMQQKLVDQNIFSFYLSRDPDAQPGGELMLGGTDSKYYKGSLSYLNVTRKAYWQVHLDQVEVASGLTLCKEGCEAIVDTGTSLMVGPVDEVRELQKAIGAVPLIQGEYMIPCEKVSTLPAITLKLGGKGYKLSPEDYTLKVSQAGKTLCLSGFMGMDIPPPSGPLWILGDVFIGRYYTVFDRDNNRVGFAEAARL
# human caspase 2, sequence (P42575 170-325): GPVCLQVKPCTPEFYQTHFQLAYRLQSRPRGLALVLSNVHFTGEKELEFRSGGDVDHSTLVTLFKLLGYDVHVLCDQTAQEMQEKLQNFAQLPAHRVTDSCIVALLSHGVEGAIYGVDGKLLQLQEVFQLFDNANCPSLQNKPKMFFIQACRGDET
# human caspase 2, sequence (P42575 348-452): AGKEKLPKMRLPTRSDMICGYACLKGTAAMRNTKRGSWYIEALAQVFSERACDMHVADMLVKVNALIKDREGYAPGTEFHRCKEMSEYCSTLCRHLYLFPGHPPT
SMILES,IC50 [1] [nM],IC50 (human thrombin) [µM],IC50 (human cathepsin K) [µM],IC50 (human cathepsin B) [µM],IC50 (human caspase 2) [µM],IC50 (human cathepsin D) [µM],"MRT inf (in vivo; po, 10 mg/kg) [h]","Tmax (in vivo; po, 10 mg/kg) [h]",CC50 at 72 h [7] [µM],CC50 at 72 h [8] [µM],CC50 at 72 h [9] [µM],further results
COC[C@@H](NC(=O)C1CCC(F)(F)CC1)C(=O)N[C@H](Cc1ccccc1)C(=O)C(=O)NCc1nccs1 [Compound 395],18.4 ± 1.3,> 100,> 100,> 100,> 100,> 100,7.63 ± 0.57,4,,,,"CC50 (Vero E6 cells): 132 µM; CC50 [2]: 159 µM; CC50 [3]: 129 µM; Human liver microsomes T1/2 [4]: 0.6498 h; Vssobs [5]: 5.25 ± 2.13 L/kg; MRT inf (in vivo; iv, 1 mg/kg): 3.55 ± 0.52 h; Tmax (in vivo; iv, 1 mg/kg): 0.08 h; AUCINF—obs ([6]; i.v. 1 mg/kg): 2829.72 ± 958.55 ng·h/mL; AUClast ([6]; i.v. 1 mg/kg): 2574.49 ± 819.96 ng·h/mL; CL ([6]; i.v. 1 mg/kg): 6.48 ± 2.63 mL/min/kg; Cmax ([6]; i.v. 1 mg/kg): 1697.71 ± 237.45 ng/mL; T1/2 ([6]; i.v. 1 mg/kg): 9.49 ± 2.16 h; AUCINF—obs ([6]; p.o. 10 mg/kg): 13950.66 ± 782.95 ng·h/mL; AUClast ([6]; p.o. 10 mg/kg): 12675.30 ± 1265.92 ng·h/mL; Cmax ([6]; p.o. 10 mg/kg): 1006.49 ± 114.61 ng/mL; F % ([6]; p.o. 10 mg/kg): 49.23 ± 4.92%; T1/2 ([6]; p.o. 10 mg/kg): 6.64 ± 1.17 h"
COC[C@@H](NC(=O)CC1CC(F)(F)C1)C(=O)N[C@H](Cc1ccccc1)C(=O)C(=O)NCc1nccs1 [Compound 400],10.2 ± 0.1,> 100,> 100,> 100,> 100,> 100,6.47 ± 0.5,2,,,,"CC50 (Vero E6 cells): > 500 µM; CC50 [2]: > 500 µM; CC50 [3]: > 500 µM; Human liver microsomes T1/2 [4]: 0.5067 h; Vssobs [5]: 3.28 ± 1.17 L/kg; MRT inf (in vivo; iv, 1 mg/kg): 3.18 ± 0.52 h; Tmax (in vivo; iv, 1 mg/kg): 0.08 h; AUCINF—obs ([6]; i.v. 1 mg/kg): 2394.12 ± 644.94 ng·h/mL; AUClast ([6]; i.v. 1 mg/kg): 2357.97 ± 638.69 ng·h/mL; CL ([6]; i.v. 1 mg/kg): 7.30 ± 1.90 mL/min/kg; Cmax ([6]; i.v. 1 mg/kg): 1352.62 ± 116.10 ng/mL; T1/2 ([6]; i.v. 1 mg/kg): 5.09 ± 0.57 h; AUCINF—obs ([6]; p.o. 10 mg/kg): 11166.54 ± 364.00 ng·h/mL; AUClast ([6]; p.o. 10 mg/kg): 10791.37 ± 123.59 ng·h/mL; Cmax ([6]; p.o. 10 mg/kg): 805.87 ± 75.43 ng/mL; F % ([6]; p.o. 10 mg/kg): 45.77 ± 0.52%; T1/2 ([6]; p.o. 10 mg/kg): 4.67 ± 1.04 h"
O=C(NCc1nccs1)C(=O)[C@@H](Cc1ccccc1)NC(=O)[C@H]1CC(F)(F)CN1C(=O)C1CCC(F)(F)CC1 [Compound 402],19.9 ± 0.3,,,,,,,,410,> 500,327,
C[C@@H](NC(=O)C1CCC(F)(F)C1)C(=O)N[C@H](Cc1ccccc1)C(=O)C(=O)NCc1cscn1 (stereo partly shown) [Compound 415],19.4 ± 2.2,,,,,,,,> 500,> 500,468,
C[C@@H](NC(=O)CC1CC1(F)F)C(=O)N[C@H](Cc1ccccc1)C(=O)C(=O)NCc1cscn1 (stereo partly shown) [Compound 417],22.1 ± 3,> 100,> 100,> 100,> 100,> 100,6.55 ± 0.39,3.33 ± 1.15,> 500,> 500,> 500,"half-life at 1 µM ([4]; pH 7.4, NADPH, read-out: Human liver microsomes T1/2): 0.534 h; AUC(0-inf) (in vivo; po, 10 mg/kg): 5070 ± 2290 ng·h/mL; AUC(0-t) (in vivo; po, 10 mg/kg): 4890 ± 2320 ng·h/mL; Cmax (in vivo; po, 10 mg/kg): 441 ± 225 ng/mL; half-life (in vivo; po, 10 mg/kg): 5.07 ± 1.78 h"
C[C@@H](NC(=O)CC1CC(F)(F)C1)C(=O)N[C@H](Cc1ccccc1)C(=O)C(=O)NCc1cscn1 [Compound 418],10.6 ± 0.3,,,,,,,,> 500,> 500,> 500,
O=C(CC1CC(F)(F)C1)NCC(=O)N[C@H](Cc1ccccc1)C(=O)C(=O)NCc1cscn1 [Compound 423],13.2 ± 0.2,,,,,,,,> 500,> 500,> 500,
